Results taken from patent US9464077B2, “Nitrogen-containing aromatic heterocyclic compound” (Astellas Pharma Inc., priority 2012, dated 2016).
pIC50: −log10 of the molar value.

Columns and labels:
human recombinant FGFR1 = human recombinant FGFR1 (Homo sapiens, UniProt P11362); assay: FGFR1 enzyme assay (LabChip EZ Reader)
Method: (§3) The compound was diluted with a solution of dimethyl sulfoxide (DMSO) (10-fold common ratio, 4 portions) before dilution with a reaction buffer (100 mM HEPES (pH7.5), 0.003% Brij-35, 0.004% Tween 20, 0.5 mM DTT, and 10 mM MgCl2) so that the final DMSO concentration was 2%. To 4 μL of the compound solution in a 384-well plate, 2 μL each of FGFR1 enzyme (2 or 3 ng/μL), FGFR2 enzyme (2 ng/μL), or FGFR3 enzyme (6 ng/μL) which were diluted with the reaction buffer was added. […] After the reaction was stopped, the reaction mixture was measured with a LabChip EZ Reader. The IC50 values were calculated by non-linear regression based on the inhibition rates obtained.

[1] = tested on: FGFR3-TACC3_v2 (N-FLAG) fusion polypeptide; assay: In vitro kinase activity inhibition (HTRF KinEASE-TK); format: biochemical, human; settings: 100 μM ATP
human recombinant FGFR3 = human recombinant FGFR3 (Homo sapiens, UniProt P22607); assay: FGFR3 enzyme assay (LabChip EZ Reader)
Method: as §3

[2] = tested on: FGFR3-TACC3_v3 (N-FLAG) fusion polypeptide; assay: In vitro kinase activity inhibition (HTRF KinEASE-TK); format: biochemical, human; settings: 100 μM ATP
[3] = tested on: FGFR3-TACC3_v1-expressing NIH3T3 cells; assay: Anchorage-independent cell growth inhibition, spheroid plate; format: cell-based; settings: Mus musculus, NIH3T3, 96 h, 4 days, read-out: growth inhibition rate v1
Description: (§1) Measurement for anchorage-independent cell growth (colony method, etc.) is known to be a system for investigating the anticancer action (pharmacological effect) of compounds (Clinical Oncology, second edition, Cancer and Chemotherapy Publishers Inc.). As a method for measuring the non-adhesive growth of cells, there is the following method using a spheroid plate as referred to above in place of the colony method.
(§2) In a 96-well spheroid plate (Sumilon Celltight Spheroid 96U; Sumitomo Bakelite), FGFR3-TACC3_v1-expressing NIH3T3 cells, FGFR3-TACC3_v2-expressing NIH3T3 cells, FGFR3-TACC3_v3-expressing NIH3T3 cells, and FGFR3-TACC3_v4-expressing NIH3T3 cells were each seeded at 1×10^3 cells per well in D-MEM media (Invitrogen) containing 10% fetal bovine serum. […] A well supplemented with only medium was also prepared for a positive control. Culturing was performed overnight in the presence of 5% CO2 at 37° C. followed by addition of test compounds (final concentrations: 100 nM, 10 nM, and 1 nM). As a negative control, DMSO used as a solvent for the compounds was added at the same concentration (0.1%) as in the case of addition of the compounds. Then, culturing was performed in the presence of 5% CO2 at 37° C. for 4 days, and a cell counting reagent (CellTiter-Glo™ Luminescent Cell Viability Assay; Promega) was added and the resulting mixture was stirred for 20 minutes followed by measurement with a luminometer.

[4] = tested on: FGFR3-TACC3_v2-expressing NIH3T3 cells; assay: as above; format: cell-based; settings: Mus musculus, NIH3T3, 96 h, 4 days, read-out: growth inhibition rate v2
Description: as §1, §2

[5] = tested on: FGFR3-TACC3_v4-expressing NIH3T3 cells; assay: as above; format: cell-based; settings: Mus musculus, NIH3T3, 96 h, 4 days, read-out: growth inhibition rate v4
Description: as §1, §2

[6] = tested on: FGFR3-TACC3_v3-expressing NIH3T3 cells; assay: as above; format: cell-based; settings: Mus musculus, NIH3T3, 96 h, 4 days, read-out: growth inhibition rate v3
Description: as §1, §2

[7] = tested on: FGFR3-BAIAP2L1-expressing NIH3T3 cells; assay: as above; format: cell-based; settings: Mus musculus, NIH3T3, 96 h, 4 days, read-out: growth inhibition rate FGFR3-BAIAP2L1-expressing NIH3T3 Cells
Method: In a 96-well spheroid plate (Sumilon Celltight Spheroid 96U; Sumitomo Bakelite), FGFR3-BAIAP2L1-expressing NIH3T3 cells were seeded at 1×10^3 cells per well in D-MEM medium containing 10% fetal bovine serum. A well supplemented with only medium was also prepared for a positive control. Culturing was performed overnight in the presence of 5% CO2 at 37° C. followed by addition of test compounds (final concentrations: 100 nM, 10 nM, and 1 nM). As a negative control, DMSO used as a solvent for the compounds was added at the same concentration (0.1%) as in the case of addition of the compounds. Then, culturing was performed in the presence of 5% CO2 at 37° C. for 4 days, and a cell counting reagent (CellTiter-Glo™ Luminescent Cell Viability Assay; Promega) was added and the resulting mixture was stirred for 20 minutes followed by measurement with a luminometer.

FGFR3_S249C/NIH3T3 cells = assay: Growth assay of cells with forced expression of mutant FGFR3; format: cell-based; settings: Mus musculus, NIH3T3, 120 h; 5 days after addition, CellTiter-Glo; read-out: IC50 (growth inhibition)
Method: FGFR3_S249C/NIH3T3 cells were added to a 96-well spheroid plate (U bottom) at a concentration of 3000 cells/well/90 μL, and the compound solution (10 μL) was added thereto on the next day (final DMSO concentration: 0.1%). The compound solution was prepared by serially diluting the compound with DMSO at a 3-fold common ratio (9 portions and DMSO only) from the maximum concentration of 10 mM and then diluted 100-fold with a culture medium (D-MEM, 10% FBS). 5 days after the addition of the compound, the growth inhibition caused by the compound was evaluated by Promega (G7573) CellTiter-Glo™ Luminescent Cell Viability Assay.

[8] = tested on: FGFR3-TACC3_v1 (N-FLAG) fusion polypeptide; assay: In vitro kinase activity inhibition (HTRF KinEASE-TK); format: biochemical, human; settings: 100 μM ATP
[9] = tested on: bladder cancer patient-derived cell line RT-112; assay: Anchorage-independent cell growth inhibition, spheroid plate; format: cell-based; settings: Homo sapiens, RT-112, 96 h, 4 days, read-out: growth inhibition rate RT-112

human recombinant FGFR3, sequence (P22607 23-806): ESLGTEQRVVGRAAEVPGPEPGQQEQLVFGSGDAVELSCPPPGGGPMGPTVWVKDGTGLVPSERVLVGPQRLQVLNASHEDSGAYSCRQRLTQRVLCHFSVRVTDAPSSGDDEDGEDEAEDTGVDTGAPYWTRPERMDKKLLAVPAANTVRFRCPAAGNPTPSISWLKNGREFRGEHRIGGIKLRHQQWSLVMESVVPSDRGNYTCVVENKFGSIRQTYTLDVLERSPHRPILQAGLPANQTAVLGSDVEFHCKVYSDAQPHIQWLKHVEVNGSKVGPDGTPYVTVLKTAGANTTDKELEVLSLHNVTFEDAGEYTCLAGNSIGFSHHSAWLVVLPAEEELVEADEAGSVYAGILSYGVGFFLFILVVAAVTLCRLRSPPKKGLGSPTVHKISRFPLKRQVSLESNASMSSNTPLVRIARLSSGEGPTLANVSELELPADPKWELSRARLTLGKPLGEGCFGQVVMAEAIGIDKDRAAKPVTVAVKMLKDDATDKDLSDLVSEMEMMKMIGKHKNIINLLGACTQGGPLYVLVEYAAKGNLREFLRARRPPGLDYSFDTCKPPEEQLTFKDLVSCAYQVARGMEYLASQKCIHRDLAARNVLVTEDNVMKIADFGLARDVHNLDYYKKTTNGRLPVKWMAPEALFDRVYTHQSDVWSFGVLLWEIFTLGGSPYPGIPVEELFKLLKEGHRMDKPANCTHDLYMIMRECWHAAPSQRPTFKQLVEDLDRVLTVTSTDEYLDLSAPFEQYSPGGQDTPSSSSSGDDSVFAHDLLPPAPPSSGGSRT
human recombinant FGFR1, sequence (P11362 22-822): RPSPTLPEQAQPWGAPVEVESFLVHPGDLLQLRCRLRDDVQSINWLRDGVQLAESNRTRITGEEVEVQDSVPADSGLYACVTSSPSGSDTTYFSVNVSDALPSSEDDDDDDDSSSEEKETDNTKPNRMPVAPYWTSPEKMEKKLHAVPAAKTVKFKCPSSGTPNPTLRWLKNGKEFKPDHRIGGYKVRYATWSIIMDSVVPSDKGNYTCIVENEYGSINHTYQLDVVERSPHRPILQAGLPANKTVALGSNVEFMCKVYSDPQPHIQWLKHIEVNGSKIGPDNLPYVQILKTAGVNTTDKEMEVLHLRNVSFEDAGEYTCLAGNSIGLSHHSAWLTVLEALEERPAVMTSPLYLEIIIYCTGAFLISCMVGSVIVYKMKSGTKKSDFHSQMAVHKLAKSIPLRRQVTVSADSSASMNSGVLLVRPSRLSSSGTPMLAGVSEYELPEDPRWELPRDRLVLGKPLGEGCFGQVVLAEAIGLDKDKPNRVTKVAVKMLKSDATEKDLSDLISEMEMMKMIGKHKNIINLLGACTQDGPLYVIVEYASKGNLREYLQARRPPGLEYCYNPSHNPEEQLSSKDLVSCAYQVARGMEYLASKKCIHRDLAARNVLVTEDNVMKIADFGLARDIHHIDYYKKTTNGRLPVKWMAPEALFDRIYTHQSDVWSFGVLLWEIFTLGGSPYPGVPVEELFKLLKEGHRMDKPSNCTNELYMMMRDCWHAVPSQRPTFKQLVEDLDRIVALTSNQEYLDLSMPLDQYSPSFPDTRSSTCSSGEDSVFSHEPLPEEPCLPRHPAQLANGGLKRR

Question: `COc1cc(OC)c(F)c(COc2cnc(Nc3ccc(N4CCC(NCCO)CC4)cc3)nc2)c1F` [Example 299] was tested. Which pIC50 (human recombinant FGFR1) did it give?
Answer: > 9.00

Question: What about the “rate of inhibiting kinase activity v2” value ([1]; 1 nM) of the same compound?
Answer: 20%

Question: And the “rate of inhibiting kinase activity v2” value ([1]; 10 nM)?
Answer: 77%

Question: And the “rate of inhibiting kinase activity v2” value ([1]; 100 nM)?
Answer: 95%

Question: What about the pIC50 (human recombinant FGFR3) of the same compound?
Answer: 8.70

Question: What about the “rate of inhibiting kinase activity v3” value ([2]; 1 nM) of the same compound?
Answer: 47%

Question: What about the “rate of inhibiting kinase activity v3” value ([2]; 10 nM) of the same compound?
Answer: 88%

Question: What about the “rate of inhibiting kinase activity v3” value ([2]; 100 nM) of the same compound?
Answer: 96%

Question: What about the inhibition at 0.001 µM ([3]; 1 nM) of the same compound?
Answer: 9%

Question: What about the inhibition at 0.01 µM ([3]; 10 nM) of the same compound?
Answer: 77%

Question: What about the inhibition at 0.1 µM ([3]; 100 nM) of the same compound?
Answer: 92%

Question: What about the inhibition at 0.001 µM ([4]; 1 nM) of the same compound?
Answer: 4%

Question: What about the inhibition at 0.01 µM ([4]; 10 nM) of the same compound?
Answer: 63%

Question: What about the inhibition at 0.1 µM ([4]; 100 nM) of the same compound?
Answer: 91%

Question: And the inhibition at 0.001 µM ([5]; 1 nM)?
Answer: 16%

Question: And the inhibition at 0.01 µM ([5]; 10 nM)?
Answer: 82%

Question: And the inhibition at 0.1 µM ([5]; 100 nM)?
Answer: 90%

Question: And the inhibition at 0.001 µM ([6]; 1 nM)?
Answer: 5%

Question: What about the inhibition at 0.01 µM ([6]; 10 nM) of the same compound?
Answer: 51%

Question: What about the inhibition at 0.1 µM ([6]; 100 nM) of the same compound?
Answer: 89%

Question: What about the inhibition at 0.001 µM ([7]; 1 nM) of the same compound?
Answer: 15%

Question: What about the inhibition at 0.01 µM ([7]; 10 nM) of the same compound?
Answer: 81%

Question: What about the inhibition at 0.1 µM ([7]; 100 nM) of the same compound?
Answer: 91%

Question: What about the pIC50 (FGFR3_S249C/NIH3T3 cells) of the same compound?
Answer: 8.00

Question: What about the “rate of inhibiting kinase activity v1” value ([8]; 1 nM) of the same compound?
Answer: 35%

Question: What about the “rate of inhibiting kinase activity v1” value ([8]; 10 nM) of the same compound?
Answer: 84%

Question: What about the “rate of inhibiting kinase activity v1” value ([8]; 100 nM) of the same compound?
Answer: 94%

Question: And the inhibition at 0.001 µM ([9]; 1 nM)?
Answer: 31%

Question: What about the inhibition at 0.01 µM ([9]; 10 nM) of the same compound?
Answer: 84%

Question: And the inhibition at 0.1 µM ([9]; 100 nM)?
Answer: 89%
